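Step 1: Grow cells in 96-well plates. Step 2: Expose to compound for 48 hours at 5 concentrations. Step 3: Interpolate endpoints linearly; if unreached, use highest concentration. GI50 = concentration required for 50% inhibition of growth.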 Activity calls are given as the source filed them. Cut-off read from the data, not from the text of the source: active = GI50 up to about 1.1 µM and inactive = higher.
What was measured:
Assay in all cases: growth of human tumour cells (NCI), 48 h
OVCAR-8 = system: OVCAR-8
HOP-92 = system: HOP-92
SF-539 = system: SF-539
HT-29 = system: HT-29
RPMI-8226 = system: RPMI-8226
SK-MEL-28 = system: SK-MEL-28
UO-31 = system: UO-31
SF-295 = system: SF-295
IGROV-1 = system: IGROV-1
K562 = system: K562
MOLT-4 = system: MOLT-4
786-0 = system: 786-0
NCI-H23 = system: NCI-H23
SN12C = system: SN12C
HOP-62 = system: HOP-62
U-251 = system: U-251
M14 = system: M14
SNB-75 = system: SNB-75
Malme-3M = system: Malme-3M
OVCAR-5 = system: OVCAR-5

SMILES | GI50 (OVCAR-8) | GI50 (HOP-92) | GI50 (SF-539) | GI50 (HT-29) | GI50 (RPMI-8226) | GI50 (SK-MEL-28) | GI50 (UO-31) | GI50 (SF-295) | GI50 (IGROV-1) | GI50 (K562) | GI50 (MOLT-4) | GI50 (786-0) | GI50 (NCI-H23) | GI50 (SN12C) | GI50 (HOP-62) | GI50 (U-251) | GI50 (M14) | GI50 (SNB-75) | GI50 (Malme-3M) | GI50 (OVCAR-5)
Cc1c(CNc2ccc(C(=O)NC(CC(=O)O)C(=O)O)cc2)ccc2nc(N)nc(N)c12 (stereo not drawn) | < 0.01 µM (active) | 1.1 µM (active) | 0.0127 µM (active) | < 0.01 µM (active) | < 0.0182 µM (active) | 1.7 µM (inactive) | < 0.018 µM (active) | < 0.0106 µM (active) | < 0.01 µM (active) | 0.0101 µM (active) | < 0.0157 µM (active) | < 0.164 µM (active) | < 0.018 µM (active) | 0.0499 µM (active) | < 0.0103 µM (active) | 0.0546 µM (active) | < 0.215 µM (active) | 32.5 µM (inactive) | 31 µM (inactive) | –
COC(=O)c1c(CC(=O)OC(C)C)cc2n(c1=O)Cc1c-2nc2ccccc2c1OC | > 100 µM (inactive) | 45.6 µM (inactive) | – | > 100 µM (inactive) | 59 µM (inactive) | > 100 µM (inactive) | > 100 µM (inactive) | > 100 µM (inactive) | 83.9 µM (inactive) | > 100 µM (inactive) | > 100 µM (inactive) | > 100 µM (inactive) | > 100 µM (inactive) | > 100 µM (inactive) | > 100 µM (inactive) | > 100 µM (inactive) | > 100 µM (inactive) | 27 µM (inactive) | > 100 µM (inactive) | > 100 µM (inactive)
C=CCSc1nc2ccccc2c(=O)n1Cc1ccco1 | > 100 µM (inactive) | 86.3 µM (inactive) | > 100 µM (inactive) | 50.1 µM (inactive) | 37.4 µM (inactive) | > 100 µM (inactive) | 91.6 µM (inactive) | > 100 µM (inactive) | > 100 µM (inactive) | > 100 µM (inactive) | – | > 100 µM (inactive) | 94.8 µM (inactive) | > 100 µM (inactive) | > 100 µM (inactive) | > 100 µM (inactive) | > 100 µM (inactive) | 89.1 µM (inactive) | > 100 µM (inactive) | > 100 µM (inactive)
CC1=NN(C(=O)c2ccccc2O)C(=O)/C1=C/c1ccc([N+](=O)[O-])cc1 | 0.203 µM (active) | 0.411 µM (active) | 0.0951 µM (active) | 5.97 µM (inactive) | 1.88 µM (inactive) | 31.6 µM (inactive) | 0.103 µM (active) | 0.131 µM (active) | 0.0635 µM (active) | 0.0434 µM (active) | – | 0.299 µM (active) | 0.177 µM (active) | 0.372 µM (active) | 0.536 µM (active) | 0.0991 µM (active) | 0.437 µM (active) | 0.248 µM (active) | 0.247 µM (active) | 3.12 µM (inactive)
C(=N\c1ccc(-c2nc3ccccc3[nH]2)cc1)/c1ccc[nH]1 | 83.9 µM (inactive) | > 100 µM (inactive) | > 100 µM (inactive) | 78.5 µM (inactive) | 37.8 µM (inactive) | > 100 µM (inactive) | 69.3 µM (inactive) | – | > 100 µM (inactive) | 41.3 µM (inactive) | 28.8 µM (inactive) | 83.4 µM (inactive) | > 100 µM (inactive) | 63.2 µM (inactive) | 3.94 µM (inactive) | – | > 100 µM (inactive) | > 100 µM (inactive) | > 100 µM (inactive) | > 100 µM (inactive)
Cc1cn(CC2=NCC(C)(C)N2)c(=O)[nH]c1=O | > 100 µM (inactive) | > 100 µM (inactive) | – | > 100 µM (inactive) | > 100 µM (inactive) | > 100 µM (inactive) | > 100 µM (inactive) | > 100 µM (inactive) | > 100 µM (inactive) | > 100 µM (inactive) | > 100 µM (inactive) | > 100 µM (inactive) | > 100 µM (inactive) | > 100 µM (inactive) | > 100 µM (inactive) | > 100 µM (inactive) | > 100 µM (inactive) | > 100 µM (inactive) | > 100 µM (inactive) | > 100 µM (inactive)
COc1ccc(CC2(Cc3ccc(OC)cc3)CCOC2=O)cc1 | > 100 µM (inactive) | 40.6 µM (inactive) | – | > 100 µM (inactive) | > 100 µM (inactive) | > 100 µM (inactive) | > 100 µM (inactive) | 60.1 µM (inactive) | > 100 µM (inactive) | > 100 µM (inactive) | > 100 µM (inactive) | 44 µM (inactive) | > 100 µM (inactive) | > 100 µM (inactive) | 20.8 µM (inactive) | > 100 µM (inactive) | > 100 µM (inactive) | 14.7 µM (inactive) | > 100 µM (inactive) | > 100 µM (inactive)
N=S(c1ccccc1[N+](=O)[O-])c1ccccc1[N+](=O)[O-] | 2.14 µM (inactive) | 1.89 µM (inactive) | 3.13 µM (inactive) | – | 1.14 µM (inactive) | 4.28 µM (inactive) | 1.87 µM (inactive) | – | 1.98 µM (inactive) | – | 1.8 µM (inactive) | 1.38 µM (inactive) | 3.52 µM (inactive) | 1.11 µM (active) | 4.65 µM (inactive) | – | 2.69 µM (inactive) | 7.94 µM (inactive) | 2.72 µM (inactive) | 4.13 µM (inactive)
COc1ccccc1NC(=O)C1=C(C)NC(C)=C(C(=O)Nc2ccccc2OC)C1c1cccc2ccccc12 | > 100 µM (inactive) | 1.38 µM (inactive) | > 100 µM (inactive) | 82.8 µM (inactive) | 9.29 µM (inactive) | 62.7 µM (inactive) | 13.7 µM (inactive) | 90.6 µM (inactive) | > 100 µM (inactive) | 13.3 µM (inactive) | 10.6 µM (inactive) | > 100 µM (inactive) | 21.7 µM (inactive) | > 100 µM (inactive) | – | > 100 µM (inactive) | > 100 µM (inactive) | 14.3 µM (inactive) | 38.6 µM (inactive) | > 100 µM (inactive)
CC(C)(C)CC(C)(C)c1cc(O)c(O)c(CN2CCCCC2)c1 | 15.6 µM (inactive) | 17.5 µM (inactive) | – | 5.69 µM (inactive) | 12.8 µM (inactive) | 17.7 µM (inactive) | 13.3 µM (inactive) | 17.5 µM (inactive) | 17.5 µM (inactive) | 4.25 µM (inactive) | 4.35 µM (inactive) | 13.4 µM (inactive) | 16.1 µM (inactive) | 15.7 µM (inactive) | 15.5 µM (inactive) | 11.9 µM (inactive) | 15.6 µM (inactive) | 17.7 µM (inactive) | 12.8 µM (inactive) | 17.4 µM (inactive)
O=C(Cn1c(=O)oc2ccc(C(=O)c3ccc(F)cc3)cc21)c1ccc([N+](=O)[O-])cc1 | 25.8 µM (inactive) | 49.3 µM (inactive) | 41.1 µM (inactive) | 39 µM (inactive) | 22.2 µM (inactive) | 45.3 µM (inactive) | 19.6 µM (inactive) | – | 24.3 µM (inactive) | 28.3 µM (inactive) | 18.2 µM (inactive) | 33 µM (inactive) | 45.6 µM (inactive) | 60.3 µM (inactive) | 54.5 µM (inactive) | 34.3 µM (inactive) | 13 µM (inactive) | 36.9 µM (inactive) | 31.8 µM (inactive) | > 100 µM (inactive)
C/C(=N\NC(=N)N)C(CN1CCCCC1)C(c1ccccc1)c1c(O)c2ccccc2oc1=O (stereo not drawn) | > 100 µM (inactive) | 47.8 µM (inactive) | > 100 µM (inactive) | > 100 µM (inactive) | > 100 µM (inactive) | > 100 µM (inactive) | – | > 100 µM (inactive) | > 100 µM (inactive) | > 100 µM (inactive) | – | > 100 µM (inactive) | > 100 µM (inactive) | > 100 µM (inactive) | > 100 µM (inactive) | – | > 100 µM (inactive) | > 100 µM (inactive) | > 100 µM (inactive) | > 100 µM (inactive)
COC(=O)C1(O)C(c2ccccc2)=NC2(C)CCCC21 (stereo not drawn) | > 100 µM (inactive) | > 100 µM (inactive) | – | > 100 µM (inactive) | > 100 µM (inactive) | > 100 µM (inactive) | > 100 µM (inactive) | > 100 µM (inactive) | > 100 µM (inactive) | > 100 µM (inactive) | > 100 µM (inactive) | > 100 µM (inactive) | > 100 µM (inactive) | > 100 µM (inactive) | > 100 µM (inactive) | > 100 µM (inactive) | > 100 µM (inactive) | > 100 µM (inactive) | > 100 µM (inactive) | > 100 µM (inactive)
CC(C)(C)c1cc(C(OCCl)(C(F)(F)F)C(F)(F)F)c2c(c1)C(C(F)(F)F)(C(F)(F)F)OC21c2ccccc2C(=O)c2ccccc21 | > 100 µM (inactive) | < 0.01 µM (active) | > 100 µM (inactive) | > 100 µM (inactive) | > 100 µM (inactive) | > 100 µM (inactive) | > 100 µM (inactive) | > 100 µM (inactive) | – | > 100 µM (inactive) | > 100 µM (inactive) | > 100 µM (inactive) | > 100 µM (inactive) | > 100 µM (inactive) | – | > 100 µM (inactive) | > 100 µM (inactive) | > 100 µM (inactive) | > 100 µM (inactive) | > 100 µM (inactive)
O=C1/C(=C/c2cccc(Oc3ccccc3)c2)N=C(c2ccccc2)N1c1nc2ccc(Sc3ccccc3)cc2[nH]1 | 29.9 µM (inactive) | 58.7 µM (inactive) | – | 23.5 µM (inactive) | 20.5 µM (inactive) | 41.3 µM (inactive) | 50.1 µM (inactive) | 19.7 µM (inactive) | 46.9 µM (inactive) | 23.7 µM (inactive) | 33.7 µM (inactive) | 32.3 µM (inactive) | 12.1 µM (inactive) | 20.7 µM (inactive) | 28.4 µM (inactive) | 27.4 µM (inactive) | 24.3 µM (inactive) | 18.2 µM (inactive) | 67.8 µM (inactive) | 57.8 µM (inactive)
